Test results taken from ChEMBL document CHEMBL1127007, “Quinazolinones 2: QSAR and in vivo characterization of AT1 selective AII antagonists” (Bioorg Med Chem Lett, 1993).

Key:
[1] = target: T1, Type-1 angiotensin II receptor (Oryctolagus cuniculus, UniProt P34976); test: Displacement of [125I]Sar1-Ile8-AII (without BSA) from type 1 Angiotensin II receptor of rabbit aorta; format: tissue-based
T1 sequence (P34976 whole entry): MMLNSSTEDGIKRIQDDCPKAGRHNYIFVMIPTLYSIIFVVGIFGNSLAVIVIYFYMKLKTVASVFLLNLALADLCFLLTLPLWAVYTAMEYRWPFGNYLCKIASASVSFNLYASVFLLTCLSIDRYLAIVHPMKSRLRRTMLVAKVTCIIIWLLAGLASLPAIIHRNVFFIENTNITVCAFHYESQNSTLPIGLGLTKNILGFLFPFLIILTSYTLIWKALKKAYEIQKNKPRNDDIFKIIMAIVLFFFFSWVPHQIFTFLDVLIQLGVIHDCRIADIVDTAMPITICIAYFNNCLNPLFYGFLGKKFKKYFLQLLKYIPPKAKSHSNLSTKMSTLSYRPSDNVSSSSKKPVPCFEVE

Rattus norvegicus [2] = test: The duration of action is expressed as the time for the % inhibition of pressor response to fall below 30% for a single bolus of the drug administered perorally.; format: functional
[3] = target: T2, Type-2 angiotensin II receptor (Homo sapiens) (UniProt P50052); test: In vitro antagonist activity against the Angiotensin II (type 2) receptor.; format: functional
T2 sequence (whole entry): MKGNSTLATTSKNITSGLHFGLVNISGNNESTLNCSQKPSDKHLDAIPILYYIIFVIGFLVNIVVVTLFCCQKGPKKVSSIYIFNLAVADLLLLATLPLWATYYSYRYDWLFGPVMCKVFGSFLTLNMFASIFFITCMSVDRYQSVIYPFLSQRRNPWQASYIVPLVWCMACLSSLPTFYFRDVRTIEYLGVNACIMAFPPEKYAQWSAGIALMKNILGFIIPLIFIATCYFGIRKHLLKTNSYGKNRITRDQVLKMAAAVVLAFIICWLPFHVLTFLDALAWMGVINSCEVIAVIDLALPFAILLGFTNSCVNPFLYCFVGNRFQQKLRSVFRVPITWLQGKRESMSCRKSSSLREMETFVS

Rattus norvegicus [4] = test: Compound was evaluated in vivo for inhibition of the AII pressor response in normotensive rat at dose 1 mg/kg, p.o. after 0.2 hour; format: functional; details: route oral
Rattus norvegicus [5] = test: Compound was evaluated in vivo for inhibition of the AII pressor response in normotensive rat at dose 1 mg/kg, iv after 4.5 hour; format: functional
[6] = target: Angiotensin II receptor (Rattus norvegicus) (UniProt P29089+P25095+P35351); test: Duration of action as time for pressor response to fall below 30% for a single bolus by intravenous dose; format: functional, organism-based
[7] = target: T1, Type-1 angiotensin II receptor; test: Ability to displace [125I]Sar1-Ile8-AII from angiotensin II receptor, type 1 in rabbit aorta in presence of 0.2% bovine serum albumin (BSA) was determined in vitro; format: tissue-based
Rattus norvegicus [8] = test: Compound was evaluated in vivo for inhibition of the AII pressor response in normotensive rat at dose 0.3 mg/kg, iv; format: functional
Rattus norvegicus [9] = test: Compound was evaluated in vivo for inhibition of the AII pressor response in normotensive rat at dose 1 mg/kg, iv after 1.2 hour; format: functional
Rattus norvegicus [10] = test: Compound was evaluated in vivo for inhibition of the AII pressor response in normotensive rat at dose 10 mg/kg, iv after 2.2 hour; format: functional
Rattus norvegicus [11] = test: Compound was evaluated in vivo for inhibition of the AII pressor response in normotensive rat at dose 1 mg/kg, iv after 0.3 hour; format: functional
Rattus norvegicus [12] = test: Compound was evaluated in vivo for inhibition of the AII pressor response in normotensive rat at dose 3 mg/kg, iv after 0.9 hour; format: functional
Rattus norvegicus [13] = test: Compound was evaluated in vivo for inhibition of the AII pressor response in normotensive rat at dose 3 mg/kg, p.o. after 1.1 hour; format: functional; details: route oral

SMILES	IC50 [1] [nM]	Activity [3] [nM]	IC50 [7] [nM]	other results
CCCCC(=O)Nc1ccc2nc(CCCC)n(Cc3ccc(-c4ccccc4-c4nnn[nH]4)cc3)c(=O)c2c1	8.9	–	–	–
CC(=O)Nc1ccc2nc(-c3ccc(-c4ccccc4C(=O)O)cc3)n(Cc3ccc(-c4ccccc4-c4nn[nH]n4)cc3)c(=O)c2c1	–	–	50	–
CCCCc1nc2ccc(N(C)C(=O)OCc3ccccc3)cc2c(=O)n1Cc1ccc(-c2ccccc2-c2nnn[nH]2)cc1	–	–	0.83	–
Nc1ccc2nc(-c3ccc(-c4ccccc4C(=O)O)cc3)n(Cc3ccc(-c4ccccc4-c4nn[nH]n4)cc3)c(=O)c2c1	–	–	33	–
CCCCc1nc2ccc(N(C)C(=O)OCc3ccccc3)cc2c(=O)n1Cc1ccc(-c2ccccc2-c2nn[nH]n2)cc1	–	> 1000	–	inhibition in vivo at 0.3 mg/kg (Rattus norvegicus [8]): 28%; Duration [6]: 0 h
CCCCc1nc2ccc(CC)cc2c(=O)n1Cc1ccc(-c2ccccc2-c2nnn[nH]2)cc1	–	–	4	–
CCCCc1nc2ccc(C)cc2c(=O)n1Cc1ccc(-c2ccccc2-c2nnn[nH]2)cc1	1.1	–	–	–
CCCCc1nc2ccc(NC(=O)OCC(C)C)cc2c(=O)n1Cc1ccc(-c2ccccc2-c2nnn[nH]2)cc1	1.6	–	6.4	–
O=C(O)c1ccccc1-c1ccc(-c2nc3ccccc3c(=O)n2Cc2ccc(-c3ccccc3-c3nn[nH]n3)cc2)cc1	–	–	20	–

Second part, led by results:

IC50 [1] [nM]	Activity [3] [nM]	IC50 [7] [nM]	SMILES	other results
–	> 1000	–	CCCCc1nc2ccc(N)cc2c(=O)n1Cc1ccc(-c2ccccc2-c2nn[nH]n2)cc1	Duration (Rattus norvegicus [2]): 0.2 h; inhibition in vivo at 1 mg/kg (Rattus norvegicus [4]): 32%; inhibition in vivo at 1 mg/kg (Rattus norvegicus [5]): 93%; Duration [6]: 4.5 h
–	> 1000	1	CCCCc1nc2ccc(OC(=O)NC(C)C)cc2c(=O)n1Cc1ccc(-c2ccccc2-c2nn[nH]n2)cc1	inhibition in vivo at 0.3 mg/kg (Rattus norvegicus [8]): 30%; Duration [6]: 0 h
1.1	–	8	CCCCc1nc2ccc(NCc3ccccc3)cc2c(=O)n1Cc1ccc(-c2ccccc2-c2nn[nH]n2)cc1	–
–	> 1000	–	CCCCc1nc2ccc(NC)cc2c(=O)n1Cc1ccc(-c2ccccc2-c2nn[nH]n2)cc1	inhibition in vivo at 1 mg/kg (Rattus norvegicus [9]): 94%; Duration [6]: 1.2 h
–	> 1000	6	CCCCc1nc2ccccc2c(=O)n1Cc1ccc(-c2ccccc2-c2nn[nH]n2)cc1	inhibition in vivo at 10 mg/kg (Rattus norvegicus [10]): 98%; Duration (Rattus norvegicus [2]): 1.1 h; inhibition in vivo at 1 mg/kg (Rattus norvegicus [11]): 40%; inhibition in vivo at 3 mg/kg (Rattus norvegicus [12]): 70%; inhibition in vivo at 3 mg/kg (Rattus norvegicus [13]): 54%
–	–	120	CCCCc1nc2ccc(NS(=O)(=O)C(F)(F)F)cc2c(=O)n1Cc1ccc(-c2ccccc2-c2nn[nH]n2)cc1	–
30	–	–	CCCCc1nc2ccc(-c3ccc(Cl)cc3)cc2c(=O)n1Cc1ccc(-c2ccccc2-c2nn[nH]n2)cc1	–
